{
  "source": "patent US11971402B2",
  "about": "“Methods and reagents for determination and treatment of organotropic metastasis” (CORNELL UNIVERSITY, priority 2015, dated 2024)",
  "key": {"WI-38 lung fibroblasts": {"test_system": "WI-38 lung fibroblasts", "test": "In vitro uptake of 4175-LuT exosomes by WI-38 lung fibroblasts", "assay_type": "cell-based, human", "conditions": "10 μg/ml exosomes pre-incubated with peptide 30 minutes at 37° C., one hour with cells", "procedure": "FIGS. 5A-M show ITGs functionally regulate organotropic exosome uptake and exosome-mediated metastasis. […] For western blot source data, see FIG. 9L. […] The WI-38 cell membrane was labelled with PKH67 dye and 4175-LuT exosomes were labelled with PKH26 dye. 10 μg/ml of exosomes were first incubated with PBS or HYD-1 peptide for 30 minutes at 37° C., followed by one hour incubation with WI-38 cells at 37° C. Excess exosomes were washed and cells were imaged (n=4 for two independent experiments); scale bar, 10 μm. […] For western blot source data, see FIG. 9M. […] Arrows indicate lung metastasis. Scale bar, 500 μm. […] For western blot source data, see FIG. 9N. […] An average of five random fields were counted at 20× magnification (data representative of 2 independent experiment n=3). […] Livers were harvested and analyzed for exosome positive cells by flow cytometry 24 hours post injection (n=4, except for the ITGαvβ5 antibody group, which n=5). […] Livers were digested and exosome-positive cells were quantified by flow cytometry (n=3). […] The lower panels show liver weight quantification (n=4 except for the control and peptide group for which n=3 of one experiment). […] Three days after cells were plated at equal density, cell numbers were counted using a hemocytometer (n=3 in 3 independent experiments). […]"}, "[1]": {"test_system": "4175-LuT exosome uptake in the lung", "test": "Peptide blocking of 4175-LuT exosome uptake in the lung", "assay_type": "in vivo, mice", "conditions": "0.06 μM peptide, 30 minutes at 37° C. prior to exosome injection", "procedure": "FIGS. 6A-D show exosomal ITGβ4 expression functionally contributes to 4175-LuT exosome localization and mediates lung metastasis. FIG. 6A, left upper panels, show NIR whole lung imaging of 4175-LuT, 4175β4KD or 4175-LuT-derived exosomes pre-incubated with RGD or HYD-1 peptides. Scale bar, 5 mm. […] (n=4, except 4175 for which n=6). Error bars, ± s.e.m. *P<0.05; **P<0.01 by one-way ANOVA. The left lower panels show fluorescence microscopy. Arrows indicate exosome foci. Scale bar, 50 μm. […] Error bars, ±s.e.m. ***P<0.001 by one-way ANOVA. FIG. 6B, left panel, show NIR whole lung imaging of 1833-BoT (n=5) or 1833-BoT overexpressing (OE) ITGβ4 (n=4) exosomes. Scale bar, 5 mm. […] Bioluminescence imaging of lung metastasis and quantification of luciferase activity (n=6, data representative of 2 independent experiments) is shown. […]\nTo assess lung, liver and bone exosome distribution, exosomes were injected via the retro-orbital venous sinus, the tail vein or intracardially. […] An average of five random fields was counted per sample at 20× magnification and representative pictures were taken at 40× magnification. […] To measure exosome uptake by specific cell types, labelled exosomes were injected 24 hours prior to tissue collection and tissues were analysed for exosome-positive cells by immunofluorescence. […] Whole lung images were analysed by image J software, by red fluorescence area in arbitrary unit (a.u.)."}},
  "data": [
    {"sequence": "KIKMVISWKG (Artificial Amino acid HYD-1 peptide)", "values": [
      {"measurement": "uptake of 4175-LuT exosomes by WI-38 lung fibroblasts in vitro", "setting": "WI-38 lung fibroblasts", "result": "prevented"},
      {"measurement": "4175-LuT exosome uptake in the lung after pre-incubation with peptide", "setting": "[1]", "result": "dramatically reduced"}
    ]}
  ]
}
